Measured values reported in patent US12139534B2, “Methods and compositions for decreasing soluble immune receptor CD28” (BIOND BIOLOGICS LTD., priority 2018, dated 2024).

Experiments:
[1] = system: autologous monocytes and CD3 T cells; assay: Autologous monocytes CD3 MLR with CMV peptide, cytokine secretion; assay type: cell-based, human
Description: Autologous monocytes CD3 MLR—0.5×10^6 T cells were mixed with 0.5×10^5 monocytes from same CMV reactive donor and stimulated with 0.5 μg/mL CMV peptivator for 6 days at 37° C. with/without the indicated concentration of treatments.
The mixed cells were stimulated for 5 days with CMV peptide (0.5 μg/mL) with and without increasing concentrations of recombinant human sCD28.
The MLR was run as before only with and without sCD28 and with and without an anti-PD1 antibody (MK3475, 5 μg/mL) (FIG. 9B).

[2] = system: human PBMCs; assay: SEB or CMV stimulated PBMCs with anti-PD1 and/or soluble CD28, cytokine secretion; assay type: cell-based
[3] = system: SCC-25 cells; assay: SCC-25 cancer cell line trans-well co-culture with monocytes, proliferation; assay type: cell-based, human
Description: Co-culture of SCC-25 cancer cell line with monocytes in trans-well based assay—4×10^4 SCC-25 cells were plated on the bottom of 24 well plate with 1×10^5 monocytes placed on cell culture insert (Millipore, Cat. No. MCHT241148) with or without indicated treatments for 4 days in starvation media without serum.
Next, cells of the head and neck cancer cell line SCC-25 were incubated either alone or with monocytes in a trans-well assay. SCC-25 cells grown alone were administered IL-6 as a positive control, and indeed cell proliferation, as measured by MTT (FIG. 10D, upper) and as measured by % confluency (FIG. 10D, lower), was increased.

[4] = system: isolated CD3 human T cells; assay: CD3 T cells stimulation with anti-CD3 OKT3, IFN gamma secretion; assay type: cell-based; details: OKT3 2 μg/mL, CD80-Fc 2 μg/mL, sCD28 titration
Description: T cells stimulation with OKT3—0.1×10^6 isolated CD3 T cells (from healthy donors) were stimulated with indicated amount of anti-CD3 clone OKT3 for 48-72 hr at 37° C. When stated recombinant human CD80-Fc (2 μg/mL, R&D system) was added in soluble form. Antibodies to CD28 or controls were added at the indicated concentration in soluble form.
CD80 is one of the two main ligands for mCD28 along with CD86. The extracellular domain of CD80 fused to an Fc moiety has been used as an immune stimulatory molecule and is under investigation as a cancer therapy. In order to examine the effect of sCD28 on CD80-Fc efficacy, isolated CD3 human T cells were stimulated with plate bound anti-CD3 antibody (OKT3, 2 μg/mL) in the presence of 2 μg/mL soluble recombinant human CD80-Fc.

[5] = system: human PBMCs; assay: Lymphocyte clustering of SEB stimulated PBMCs (IncuCyte); assay type: cell-based; details: SEB 1 ng/mL; human IgG control
Description: Next, human PBMCs were stimulated with SEB (1 ng/mL) without or in the presence of recombinant human CD28. Human IgG was used as control. Lymphocyte clustering, a hallmark of immune activation was monitored using the IncuCyte® S3 Live-Cell, with pictures taken every 12 hours. […] It is well established that during in-vitro immune response antigen presenting cells (APC) cluster with one another and with other cell types, and clustering is essential for the antigen specific activation of resting lymphocytes.

[6] = system: PBMCs isolated from cancer patients; assay: SEB stimulated PBMCs of cancer patients, IFN gamma secretion; assay type: cell-based, human; details: SEB 5 ng/mL, 3 days
[7] = system: H22 hepatocellular carcinoma cells; assay: H22 syngeneic mouse model, tumor growth; assay type: in vivo; details: Balb/c mice, H22 allograft, with anti-PD-1 therapy
Text: The closest option is to administer recombinant sCD28 to mice to mimic a situation of elevated sCD28 levels. This was investigated in a H22 syngeneic mouse model. Balb/c fully immunocompetent mice received an allograft of H22 hepatocellular carcinoma cells.

[8] = system: human monocytes; assay: Stimulation of monocytes with recombinant human CD28 (IDO, PD-L1, PD-L2); assay type: cell-based; details: recombinant human CD28 10 μg/mL
Description: Flow Cytometry—Generally, cells were kept on ice during all steps. Prior to staining, 5×10^5 cells were blocked with 50 μg/mL human IgG (Sigma, Cat. No. 14506) in FACS buffer (PBS with 0.1% BSA) for 15 min. Antibodies were used at concentrations recommended by the manufacturer and incubated for 30 min. in the dark. Incubations were done in a volume of 100 μL in 96-well U bottom plates. Cells were washed twice with 200 μL of FACS buffer and transferred to FACS tubes in 150 μL of FACS buffer for analysis. Cells were analyzed on a Gallios Flow Cytometer (Beckman Coulter) using the Kaluza for Gallios Flow Cytometry Acquisition Software.
Stimulation of monocytes with recombinant human CD28—1.5×10^6 monocytes were plated at 24 well plate in RPMI medium with […] IFN gamma (R&D system, Cat. No. 285-IF) in the presence of recombinant human CD28 at the indicated concentrations for 48 hrs. The generated cell populations were tested for the indicated phenotypes by FACS analysis of relevant markers (IDO, PD-L1 and PD-L2) and by analysis of secretion of characteristic cytokines (IL-6).
The enzyme indoleamine 2,3-dioxygenase (IDO) has been implicated in immune modulation through its ability to catabolize the essential amino acid Tryptophan. It is expressed by different immune cells and also by many cancer cells. Tryptophan shortage inhibits T lymphocytes maturation and proliferation, while Kynurenine, the end product of tryptophan catabolism, is also known as immunosuppressive metabolite that promotes immune tolerance in various physiological and pathophysiological conditions. To test the effect of sCD28 on IDO, isolated human monocytes were stimulated for 48 hr with IFNγ (1000 U/mL) in the presence of control human IgG or with recombinant human CD28 (10 μg/mL). After incubation, the monocytes were stained intracellularly for human IDO (FIG. 8E). To facilitate intracellular staining the cells were fixed and permeabilized with BD Cytofix/Cytoperm Buffer Kit. […]

[9] = system: human PBMCs; assay: CMV stimulation of PBMCs with ectopic recombinant human CD28, CTLA-4, CD80; cytokine ELISA/multiplex; assay type: cell-based
[10] = system: human PBMCs; assay: Soluble CD28 generation by SEB or CMV stimulated PBMCs, human CD28 ELISA; assay type: cell-based; details: stimulated cells with protease inhibitors; sandwich ELISA
Description: ELISA—Commercial ELISA kits were used for quantitation of the amount of human interferon-gamma (Biolegend, Cat. No. 430103), human interleukin 2 (Biolegend, Cat. No. 431802), human interleukin 6 (Biolegend, Cat. No. 430502), human interleukin 10 (Biolegend, Cat. No. 430603), human […] beta 1 (Biolegend, Cat. No. 436708), human interleukin beta 1 (Biolegend, Cat. No. 437004) and human CD28 (R&D system, Cat. No. DY342). Cell Proliferation and viability (MTT assay) was conducted according to manufacturer instructions (Roche, cat #11465007001). Kynurenine (IDO activity) ELISA kit was conducted according to manufacturer instructions (ImmuSmo Cat #BA E-2200).
Protease Inhibitors—Protease inhibitors were added at the indicated concentrations at the start of each experiment. In week long assays another portion of the inhibitors was added after 3 days at the final concentration. […] Where mentioned the protease cocktail was composed with a mixture of TAPI-1 and GM6001 at equimolar ratio.
SEB or CMV activation of PBMCs for the generation of soluble CD28—0.3×10^6 PBMCs were stimulated with 0.5 ng/mL SEB (Sigma, Cat. No. S4881) for 5-7 days at 37° C. with/without the indicated concentration of various protease inhibitors in 48 well plate. Alternatively, 0.1×10^6 PBMCs were stimulated with 0.5 ng/mL SEB in 96 well plate format assay. For CMV stimulation 0.5×10^6 PBMCs were stimulated with 0.5 μg/mL CMV peptivator (Milteny Biotec, Cat. No. 130-093-435) for 2-5 days at 37° C. with/without the indicated concentration of various protease inhibitors in a 96 well plate. For continuous shedding experiments PBMC were stimulated with SEB or CMV in 24 well plate for 24 hr, cells were taken and washed three times with RPMI without stimulant and plated again in a 96 well plate. Samples were taken at indicated times and put under freezing conditions until examination for soluble CD28.

[11] = system: human PBMCs; assay: Viability of SEB stimulated PBMCs with ADAM inhibitors (MTT assay); assay type: cell-based; details: SEB 1 ng/mL, inhibitor 0.01-1 μM, with vs without inhibitor

**Q.** How did the IFN gamma secretion ([1]; CMV peptide 0.5 μg/mL) turn out when “MK-3475: Anti-Human PD-1 pembrolizumab [reference compound]” was run?
**A.** increased IFN gamma secretion

**Q.** And the TGF beta secretion ([1]; CMV peptide 0.5 μg/mL)?
**A.** decreased TGF beta secretion

**Q.** And the “proinflammatory cytokine secretion (IFN gamma and IL-2)” value ([2]; PBMC culture, SEB or CMV, 3 days, MK3475 5 μg/mL)?
**A.** increased proinflammatory cytokine secretion

**Q.** With “IL-6: interleukin-6 administered as a positive control” as the compound, how does the “cell proliferation (MTT, % confluency)” value ([3]; SCC-25 cells grown alone) read?
**A.** increased

**Q.** What does the source list for “sCD28: recombinant human CD28 lacking the transmembrane and cytoplasmic domains”?
**A.** effect on CD80-Fc activation (IFN gamma secretion) [4]: counteracted the secondary activation effect of the CD80-Fc; IFN gamma secretion ([1]; CMV peptide 0.5 μg/mL): inhibit IFN gamma secretion; TGF beta secretion ([1]; CMV peptide 0.5 μg/mL): increasing the secretion; IL-1B secretion ([1]; CMV peptide 0.5 μg/mL, 5 days): increasing the secretion; IL-10 secretion ([1]; CMV peptide 0.5 μg/mL, 5 days): increasing the secretion; effect of MK-3475 in the presence of sCD28 ([1]; MK3475 5 μg/mL): significantly reduced; effect on immune activation by MK-3475 ([2]; sCD28 2 and 10 μg/mL with MK3475 5 μg/mL): abrogated completely this immune activation effect; lymphocyte cluster formation [5]: diminish the amount and size of cluster formation; effect on MK-3475 activity [6]: rendered the effect of MK-3475 nonexistent; concentration of human IFN gamma in the supernatant ([6]; with or without MK-3475): greatly reduced; cell proliferation (MTT, % confluency) ([3]; SCC-25 coculture with monocytes): by far the greatest increase; effect on anti-PD-1 therapy (tumor growth) [7]: nearly completely abrogated in two of the mice; PD-L1 expression on monocytes ([8]; IFNγ 1000 U/mL 48 hours): upregulated; PD-L2 expression on monocytes ([8]; IFNγ 1000 U/mL 48 hours): upregulated; IDO expression in monocytes ([8]; IFNγ 1000 U/mL 48 hr): strongly enhanced IDO expression; IFN gamma secretion ([9]; CMV 0.5 μg/mL): dose-dependent inhibition of IFN gamma secretion; IL-6 secretion ([9]; CMV 0.5 μg/mL): increase IL-6 cytokine secretion; interleukin-10 secretion ([9]; CMV 0.5 μg/mL): elevation; CD80-Fc amount needed for immune response ([9]; CMV peptide 3 days, constant sCD28, CD80-Fc titration): an increased amount of CD80-Fc was required

**Q.** Which “sCD28 levels detected with antibodies of the invention” value [10] does the source give for `CC#CCOc1ccc(S(=O)(=O)N2CCSC(C)(C)[C@@H]2C(=O)NO)cc1` [TMI-1] here?
**A.** Lower levels of sCD28

**Q.** And the “viability of the immune cells (MTT)” value [11]?
**A.** no significant difference
